Values quoted from earlier work, collected in patent US20100119624A1, “BENZISOXAZOLE MODULATORS OF D2 RECEPTOR AND/OR 5-HT2A RECEPTOR” (AUSPEX PHARMACEUTICALS, INC., priority 2008, published 2010).

Legend:
[1] = test system: prolactin; conditions: in vivo
[2] = in vivo
[3] = coadministration of nafzodone, a competitive CYP3A inhibitor

Row | SMILES | levels of prolactin [1] | half-life [2] | decrease in risperidone clearance [3] [%]
1 | Cc1nc2n(c(=O)c1CCN1CCC(c3noc4cc(F)ccc34)CC1)CCCC2O (stereo not drawn) [9-Hydroxyrisperidone] | elevation in the levels of prolactin | – | –
2 | Cc1nc2n(c(=O)c1CCN1CCC(c3noc4cc(F)ccc34)CC1)CCCC2 [Risperidone, 4-[2-[4-(6-fluorobenzo[d]isoxazol-3-yl)-1-piperidyl]ethyl]-3-methyl-2,6-diazabicyclo[4.4.0]deca-1,3-dien-5-one] | – | about 2 hours | ~50
